From patent US4954156A, “N,N-dihalo-2-imidazolidinones and N-halo-2-oxazolidinones as urease and nitrification inhibitors” (Tennessee Valley Authority, priority 1989, dated 1990)
Several values for one entry are separate records, joined by “and”; a condition that tells them apart may be missing. Equal values may be shown once.

Assays:
[1] = system: nitrification of ammonium nitrogen in soil; test: Soil nitrification inhibition test (Mountainview silt loam, banded); conditions: for % inhibition (nitrification) / Net mg NO2N / Net mg NO3N: 25° C, 410 mg urea + 41 mg inhibitor; for Nitrite accumulation in the soil: during the 5 weeks incubation, greater than with dicyandiamide
Procedure: Embodiment 2: The N-Halamine compounds were tested for nitrification inhibition using the soil testing procedure described below.
Mountainview silt loam soil was screened through a 2 mm sieve. Plexiglas containers (8×8×6 cm) were packed half full with the soil and packed to a bulk density of 1.0 g/cm^3 and wetted to field capacity (approximately 20 weight percent moisture). The urea 410 mg per container) and inhibitor (41 mg per container) were added in a narrow band (0.5 cm wide X 6 cm long), and additional soil was added to fill the containers. The total amount of dry soil added was 384 g. The containers were incubated at 25° C. During incubation the containers were checked periodically for moisture loss and additional water added as needed to maintain moisture levels.
The individual containers were removed from the incubator at 1, 2, 3, 4, and 5 week intervals. After removal from the incubator the contents of the container were transferred to a plastic bag and thoroughly mixed. A 10-g sample of soil (dry basis) was taken from the bag and extracted with 100 ml of 2 N KCL. The extract was filtered through Whatman #41 filter paper and refrigerated until analyzed. Samples were analyzed for NO3-N- NO2-N- and urea-N using a colorimetric procedure. Some samples also were analyzed for NH4-N.
The percent nitrification inhibition was calculated according to the method of Bundy and Bremner [G. L. Bundy and J. M. Bremner, Soil Sci. Soc. Am. Proc. 37, 396-398 (1973)]
% nitrification inhibition=[(C-S)/C]×100
where C=net amount of NO3-N produced in the control (no inhibitor added), and S=net amount of NO3-N produced in the inhibitor treated sample.
^a Concentrations are in net mg/container. All containers had 384 g
soil (dry), 410 mg urea (188.6 mg N) and 41 mg inhibitor. Samples were
extracted 10 g → 100 mls 2N KCl. The formulas used for calculation
where C = net NO3N produced in control (no inhibitor), S = net
NO3N produced in inhibitor treated sample, net NO3N =
(NO3N) - (soil NO3N), and net NO2N = (NO2N) - (soil
NO2N). Values are averages of two replicate samples.

[2] = system: soil urease (urease-active Hastings silt loam soil); test: Banded soil system urease inhibition test (Hastings silt loam); conditions: 410 mg urea + 41 mg inhibitor
Procedure: Embodiment 1: Urease activity of inhibitor test compounds may be evaluated either in aqueous or in soil systems. When aqueous systems are used, urea plus a test compound with possible urease inhibition activity and relatively pure urease enzyme are incubated together to determine the effects of the test compound on urease-catalyzed hydrolysis of urea. When soil systems are used, urea and the test compound are added to moist soil, and the urease enzyme is supplied from the soil. The main disadvantage of using soil systems is that the true activity of test compounds may be masked because of reactions between the test compound and soil. Thus, basic studies for understanding chemical structure-activity relationships are usually done in aqueous systems.
Soil System Test Procedure: The soil system test procedure used was a modification of the previous procedures of other researchers L. A. Douglas and J. M. Bremner, Soil Biol. Biochem. 3, 309-315 (1971) and J. M. Bremner and R. L. Mulvaney, "Urease Activity in Soils," Soil Enzymes 5, R. G. Burns, editor, Academic Press, 149-195 (1978)]. In this modified procedure powdered mixtures of urea and test compounds were applied in narrow bands in the soil rather than being mixed throughout the soil. The banded configuration also results in concentration gradients of urea, urea hydrolysis products, test compounds, and test compound decomposition products similar to those in the immediate vicinity of urea granules containing the test compounds. Another advantage of the banded configuration compared with mixing throughout the soil is that slightly soluble test compounds can be easily band applied, whereas it is difficult to achieve a known degree of mixing of a small quantity of slightly soluble test compound with soil. The banded configuration also enables testing for urease inhibition under realistic soil conditions prior to the development of techniques for cogranulating a wide range of test compounds with urea.
A detailed description of the banded soil testing procedure follows. Urease-active soil (Hastings silt loam) was moistened to a moisture content of 20 percent dry weight basis) and preincubated at room temperature for two days. Plexiglas containers (6×6×6 cm) were half filled with soil and packed to a bulk density of 1.0 g/cm . Urea (410 mg) or urea (410 mg) plus inhibitor (41 mg, thoroughly mixed with the urea) was distributed in a narrow band about 0.5 cm wide and 6 cm long on the soil surface. The containers then were filled with soil, again packing to a bulk density of 1.0 g/cm^3. The containers were incubated at 25° C. for the desired reaction period, after which the containers were frozen to about -5° C. to stop urea hydrolysis. Immediately prior to extracting the remaining urea from the soil, said soil was allowed to thaw. Soil from each container was thoroughly mixed, and a 10-g sample was extracted with 100 ml of 2 M KCl containing phenylmercuric acetate to prevent urea hydrolysis during handling [L. A. Douglas and J. M. Bremner, Soil. Sci. Soc. Am. Proc. 34, 859-862 (1970)]. Urea in the extracts was determined colorimetrically as a measure of unhydrolyzed urea and the results expressed as percent unhydrolyzed urea-N.
^a The plexiglas containers measured 6 × 6 × 6 cm.
Hastings silt loam soil was utilized and packed to a bulk density of 1
gm/cm^3 dry basis. The soil was wet to near field capacity (20%
moisture) and 260 g of wetted soil (216 g dry soil) was added per
container. The containers were packed half full, urea and inhibitor were
added, and the remaining soil was added. The amount of urea added = 410 m

SMILES	% inhibition (nitrification) ([1]; 1 week)	Net mg NO2N ([1]; 1 week)	Net mg NO3N ([1]; 1 week)	% inhibition (nitrification) ([1]; 2 weeks)	Net mg NO2N ([1]; 2 weeks)	Net mg NO3N ([1]; 2 weeks)	% inhibition (nitrification) ([1]; 3 weeks)	Net mg NO2N ([1]; 3 weeks)	Net mg NO3N ([1]; 3 weeks)	% inhibition (nitrification) ([1]; 4 weeks)	Net mg NO2N ([1]; 4 weeks)	Net mg NO3N ([1]; 4 weeks)	% inhibition (nitrification) ([1]; 5 weeks)	Net mg NO2N ([1]; 5 weeks)	Net mg NO3N ([1]; 5 weeks)	Nitrite accumulation in the soil [1]	% unhydrolyzed urea-N ([2]; 3 days incubation at 25° C)	PPM urea-N ([2]; 3 days incubation at 25° C)	% unhydrolyzed urea-N ([2]; 6 days incubation at 25° C)	PPM urea-N ([2]; 6 days incubation at 25° C)	further results
CC1(C)N(Br)C(=O)N(Br)C1(C)C [AB, 1,3-dibromo-4,4,5,5-tetramethyl-2-imidazolidinone]	100.0%	-0.05 mg/container	0.0 mg/container	100.0%	0.04 mg/container	0.0 mg/container	100.0%	0.03 mg/container	0.0 mg/container	100.0%	0.82 mg/container	0.0 mg/container	98.3%	2.63 mg/container	3.1 mg/container	well within plant tolerance levels	70.59% and 70.6%	62.5 PPM	15.02% and 15.0%	13.3 PPM	
N#CN=C(N)N [Dicyandiamide, dicyandiamide, reference compound]	78.2%	0.17 mg/container	4.6 mg/container	88.6%	0.19 mg/container	17.7 mg/container	87.4%	0.01 mg/container	22.7 mg/container	87.4%	0.01 mg/container	22.7 mg/container	90.0%	-0.02 mg/container	18.4 mg/container						% inhibition (nitrification) ([1]; 5 weeks, listed as dicyandiamide): 90%
CC1(C)COC(=O)N1Cl [I, 3-chloro-4,4-dimethyl-2-oxazolidinone]	74.4%	0.28 mg/container	5.4 mg/container	68.9%	0.49 mg/container	48.4 mg/container	4.9%	0.07 mg/container	171.3 mg/container	-2.8%	0.02 mg/container	185.5 mg/container	-1.5%	-0.01 mg/container	187.4 mg/container		82.45% and 82.4%	73.0 PPM	56.47% and 56.5%	50.0 PPM	% inhibition (nitrification) ([1]; 5 weeks, listed as 3-chloro-4,4-dimethyl-2-oxazolidinone): 0%; nitrification inhibition effect ([1]; after three weeks): almost completely exhausted
CC1(C)COC(=O)N1Br [IB, 3-bromo-4,4-dimethyl-2-oxazolidinone]	100.0%	-0.02 mg/container	0.0 mg/container	100.0%	0.06 mg/container	0.0 mg/container	100.0%	0.12 mg/container	0.0 mg/container	100.0%	0.52 mg/container	0.0 mg/container	99.6%	2.64 mg/container	0.8 mg/container	well within plant tolerance levels	65.51% and 65.5%	58.0 PPM	10.05% and 10.0%	8.9 PPM	% inhibition (nitrification) ([1]; 1 week, listed as 3-bromo-4,4-dimethyl-2-oxazolidinone): 100%
